# Test results as given in patent publication US20090215906A1 (priority 2005, published 2009).
# Where two headings read alike, the source gives them in different places.
# Experiments:
# Male Baboons [1] = test: Effects of Clomids on serum testosterone and prolactin in male baboons; assay type: in vivo, Baboon; details: 1.5 mg/kg for 12 days, in words
# Text: There were no changes in serum LH or FSH. […] There was also no change in body weight during the 12 day study.
# Male Baboons [2] = test: Effects of Clomids on serum cholesterol in male baboons; assay type: in vivo, Baboon; details: 1.5 mg/kg for 12 days
# Text: (§1) The samples analyzed were sera taken on the day of first treatment before being given test article (day 0), after 12 days of treatment (day 12) and 7 days after the last treatment (end or washout).
# men = details: cited from earlier work
# hypogonadal men [3] = test system: hypogonadal men
# Procedure: (§2) Half of the men in each of the Androxal™ and placebo arms were randomized into cohorts that underwent in-clinic sessions on days 1 and 14 to determine pharmacokinetic parameters for Androxal™ as well as cyclical changes in testosterone. The placebo and Androxal™ doses were administered in a double blind fashion. The Androgel® cream was administered in an open label fashion. Half of the Androgel® patients underwent in-clinic sessions similar to the other patients in the study. Following the two week drug exposure patients were followed for an additional seven to ten days to determine the status of their testosterone levels.
# hypogonadal men [4] = test system: hypogonadal men; remark: listed apart in the source
# Procedure: as §2
# Male Baboons [5] = test: Effects of Clomids on clinical chemistry and hematology parameters in male baboons
# Text: as §1
# Male Baboons [6] = details: in vivo, 1.5 mg/kg
# Text: as §1
# [7] = men, after 2 months, Guay et al. 1995
effects on hematocrit (Male Baboons [6]),effects on the red blood cell population (Male Baboons [6]),SMILES,effect on total serum testosterone (Male Baboons [1]),serum cholesterol levels (in words) (Male Baboons [2]),"LH, FSH, and testosterone (men; [7])",erectile dysfunction (men; [7]),"semen quality or fertility (men; men, after 6 months of treatment, WHO study)","free and total testosterone (men; men, Tenover et al. 1987)","FSH, LH (men; young and old men after treatment, Tenover et al. 1987)",changes in testosterone from baseline testosterone levels (in words) (hypogonadal men [3]; all doses),serum levels of LH (hypogonadal men [3]; during treatment),"reduction in triglycerides (hypogonadal men [4]; average, non-dose dependent, after two weeks of therapy)",side effects different than placebo (hypogonadal men [4]; two week exposure),counts of eosinophiles (Male Baboons [5]; 1.5 mg/kg for 12 days),effects on the red blood cell population (Male Baboons [5]; 1.5 mg/kg for 12 days),lymphocyte count (Male Baboons [5]; 1.5 mg/kg for 12 days),serum creatinine values (Male Baboons [5]; between day 0 and Day 12),per cent of granulocytes in the blood (Male Baboons [5]; very strong after the 7-day washout)
–,–,"CCN(CC)CCOc1ccc(C(=C(Cl)c2ccccc2)c2ccccc2)cc1 [Clomid, clomiphene]",more variable total testosterone levels,slight increase,increase,no effects,no changes,increases,increased,–,–,–,–,–,–,–,–,–
–,–,"CCN(CC)CCOc1ccc(/C(=C(\Cl)c2ccccc2)c2ccccc2)cc1 [Enclomid, trans-clomiphene]",significant increases,–,–,–,–,–,–,statistically significant changes,statistically increase,19.1%,no side effects,raising,substantive effects,increase,no differences,lowering
substantive effects,substantive effects,"CCN(CC)CCOc1ccc(/C(=C(/Cl)c2ccccc2)c2ccccc2)cc1 [Zuclomid, cis-clomiphene]",–,–,–,–,–,–,–,–,–,–,–,–,–,–,–,–
